# Test system: morphine withdrawal in mice
# Assay: naloxone-precipitated morphine withdrawal behaviors
# Format: in vivo, mouse
# Conditions: 30 mg/kg IP, 4×12 hr
# Description: Eight month old male EphB1^+/+ WT mice EphB1^−/− KO mice from the Henkemeyer mouse colony were injected intraperitoneally (IP) with increasing morphine doses in normal saline every 12 h for 4 consecutive days (day 1:20 mg/kg, day 2:40 mg/kg, day 3:60 mg/kg, day 4:80 mg/kg) and on the fifth day in the morning they were injected with a final 100 mg/kg morphine dose which was staggered by one mouse every 30 minutes. Exactly 3 h after the last morphine injection, each mouse was weighed, and withdrawal was precipitated using naloxone hydrochloride that was subcutaneously injected at 1 mg/kg. Withdrawal signs were then monitored by an examiner who was blinded to animal genotypes for 30 min after naloxone administration to identify the number of jumps, wet dog shakes, and diarrhea events observed in the 30 min period, and % change in weight from before naloxone administration to 30 min post withdrawal. For tremor and ptosis, the presence of tremor and/or a drooping upper eyelid is monitored at the beginning of each 5 min interval during the 30 min monitoring period.
# WT CD1 mice was used in one experiment and WT C57BL/6 mice was used in the other. All mice were 4-5-month-old males. In both cases, 30 mg/kg A20 free base dissolved in 6% DMSO/94% sunflower seed oil was administered in 4×12 hr IP dosings to mice that were at an entering dose 6 of a 9×12 hr IP schedule of escalating morphine (2×20, 2×40, 2×60, 2×80, and 1×100 mg/kg). Naloxone was given exactly 3 hr after the last A20/morphine dose and withdrawal behaviors were monitored for 30 min. Both groups of mice were scored for jumping (FIG. 70A) and the C57BL/6 mice were additionally scored at 5 min intervals for diarrhea, tremor, and ptosis (FIG. 70B). […] In summary, A20 tetramerization inhibitor compounds serve to help reduce the adverse effects of opioid use and abuse, and could possibly be used to help wean people off of terribly addictive narcotic drugs.
smiles,measurement,value
"Oc1c(Br)cc(CN2CCOCC2)c2cccnc12 [Compound 5, 7-bromo-5-(morpholinomethyl)quinolin-8-ol]",diarrhea and ptosis,did not show signs of diarrhea or ptosis
same,jumps,significantly fewer jumps
same,tremor reduction,50%

# Source: patent publication US20260374739A1, “SMALL MOLECULAR WEIGHT CHEMICAL COMPOUND TO ANTAGONIZE EPH-EPHRIN TETRAMERIZATION AND INHIBIT BIDIRECTIONAL SIGNALING” (THE BOARD OF REGENTS OF THE UNIVERSITY OF TEXAS SYSTEM, priority 2022, published 2026)
